Test results taken from patent US10131558B1, “Compositions, methods, and/or systems for managing sulfide” (priority 2016, dated 2018).
Several values for one entry are separate records, joined by “and”; a condition that tells them apart may be missing. Equal values may be shown once.

Tests used:
[1] = Treatment of sulfides in municipal wastewater using ferric chelants and ozone; details: ozone ~13.4 ppm, 4 ppm ferric chelant where used; for sulfide remaining: start 13.70
Source text: The raw wastewater received a dose of 4 ppm of each of the four ferric chelants (mass calculated as chelant) just prior to addition of ozone.
Ozone addition was accomplished using an ozone generator from Ozone Solutions, Sioux Center, Iowa. The generator was capable of generating up to 2 grams per hour of ozone. Injection of ozone into the wastewater was accomplished using an injection system from Ozone Solutions called the H2O-Mini. The unit is designed to treat from 1.5 to 5.7 liters per minute of wastewater. The unit was set up to deliver 6.7 mg/minute of dissolved ozone (assumed the 80% efficiency of dissolution noted by the manufacturer) to wastewater passing the injection nozzle within the H2O-mini. Each test was designed for maximum wastewater flow through the H2O-mini (5.7 liters/min).
An objective of the study will be to treat most, but not all, of the sulfide present within the individual test samples in order to determine which treatment was more efficient than the others.
Samples were taken over twenty minutes of contact time from the recirculation vessel after ozonation. For each of the four ferric chelant studies, chelants were added to the wastewater recirculation vessels just prior to starting the injection of ozone and recirculation of the liquids. The injection of ozone was applied over the prescribed period and sampled as before in the ozone only experiment.

[2] = test system: total heterotrophic bacteria; assay: Disinfection of wastewater using chelated iron compounds; type: cell-based; details: 30 min, raw average 18,188 CFUs
Description: The clarified supernatant was then pored off of the top of the settled solids within the sample. The supernatant was then mixed and four samples were collected to determine untreated heterotrophic bacteria counts. […] were dissolved in distilled water at 0.4334M. Ferric chloride was added in amounts to achieve saturation of chelant sites on the respective chelants. […] Twenty individual liter samples of supernatant were then decanted from the well-mixed wastewater sample for testing. Four chelated iron products with peroxide were tested at two test concentrations and compared to samples receiving peroxide only and iron chelate only. […] Samples were then decanted to sterile sample containers containing sodium thiosulfate to stop the oxidation process and preserve the sample. Samples were then placed in a refrigerator until all samples were finished. Samples were packaged in a standard cooler with ice packs and sent via overnite delivery to ProChem Labs in Lynchburg, Va. for analysis for total heterotrophic bacteria counts.

[3] = Full scale lagoon treatment system using eductors; details: across all stations, eductor system, September 2016
Description: Due to concerns about fugitive airborne spray entering the environment and, potentially, drifting onto a nearby public road, SMBSC management requested an underwater eductor system be installed to replace the Nelson spray irrigation system described previously. Therefore, a full scale trial using a commercially available surface chemical application system and method was tested at the SMBSC. The objective of the test was to determine if a system designed to apply oxidation treatment chemicals just below the surface of the large wastewater lagoon at SMBSC was as effective as the spray system that minimized surface mixing. It was surmised that the system would achieve similar results to the spray application approach due to minimal disturbance to lagoon subsurface wastewater. The eductor system slowly spun in a circular pattern similar to the circular pattern of the spray system. The Serfilco eductor system pulled wastewater from the contaminated lagoon using the identical system of treatment used for the Nelson spray system. The only variation was the application mechanism of eduction versus spray. The eduction system relied on the force of the wastewater flowing back into the eductor distribution arms to force the circular motion of the arms distributing oxidation chemicals. All aspects of the system were the same except for the distribution system. […]

[4] = Treatment of sulfides in municipal wastewater using ferric chelants and hydrogen peroxide
Description: Total sulfides were tested for using Standard Methods 4500-S^2− D with a Hach Chemical Company (of Loveland, Colo.) DR 2000 Spectrophotometer and reagents from Hach specific for this particular test. To keep total sulfides within the range of the test, samples were diluted with distilled water prior to conducting the test as per Hach instructions.
Tests for total sulfide were conducted after 5, 15, and 30 minutes of contact time on each of the seven liter test jars.

[5] = SMBSC pilot demonstration, lagoon spray system; details: Trial 1, samplings T2-T5
Source text: The exemplary system and method was designed to utilize 1.7 million gallons per day of the 35 to 40 million gallons of high strength wastewater within the lagoon as a carrier for treatment chemistry. Flow into the lagoon varied. Influent was mostly high organic strength wastewater. A typical daily flow rate approximated 500,000 gallons.
The utilized system and method sought to efficiently cover as much of the lagoon surface with treated wastewater containing excess quantities of treatment chemistry as practically possible. For spray nozzles, the system and method utilized 100 series Big Gun sprinklers (available from Nelson Irrigation Corporation of Walla Walla, Wash.) oriented in a pattern to assure maximum coverage of targeted surface area of the lagoon. […] The pressure varied depending on the demand of the spray nozzles and surface coverage demand. Further, the effectiveness relied somewhat on delivery of sufficient volume of treated wastewater containing excess treatment chemistry to the surface of the lagoon to adequately suppress sulfide at or near the surface of the lagoon. […] Treatment chemistry for the returned treated wastewater was dosed to treat sulfide within the uptake wastewater and over dosed with added treatment chemistry to accommodate the expected need for treatment within the surface water of the receiving lagoon. […] This dosage application assumed these ratios for each hour of continuous treatment.
The method used for this pilot study for dosing was estimated by taking surface and mid-depth samples of the untreated lagoon and testing for sulfide.
Station D1 referred to a dam where water flowed down through the dam into the remaining run of the retention lagoon.

[6] = Full scale lagoon treatment system (spray)
Source text: The system was designed to treat sulfide and recirculate sulfide-free wastewater from the lagoon in a continuous manner and reuse the treated wastewater in such a manner as to gain substantially complete control of hydrogen sulfide escaping to the atmosphere. […] The capping of the lagoon was accomplished by spray applying sulfide-free treated wastewater using a spray application system specifically designed to gain complete or nearly complete coverage of the surface area of the lagoon. Importantly, the spray application system imparted minimal mixing to the untreated surface of the lagoon. Any significant mixing of the surface water within the lagoon could be problematic for hydrogen sulfide release. Gently spray-applying sulfide-free water over the lagoon served to effectively cap the lagoon with minimal mixing, thus preventing gaseous sulfide from escaping to the atmosphere. Further, by assuring that the treated wastewater returning to the lagoon surface contained excess oxidation treatment chemicals, any fugitive sulfide that might have risen through the cap could be mitigated.
The water proceeding eastward turns north at the end of the lagoon and travelling back westward where it is pumped out of the lagoon at the northwest end.
This system is primarily driven by a large electrically powered Cornell pump denoted by the “Pump” box in FIG. 5. The pump sits on a 40′ wide elevated dyke that runs down the center of the lagoon. Water is pumped out of the northwest side of the lagoon via a 12″ HDPE “Pump Intake” pipe and flows through the Cornell pump and then down the dyke in the center of the lagoon via an 8″ HDPE main pipe. […] These injection locations are designated by the “1” and “2” circles in FIG. 5. T valves were installed into the 8″ main line, redirecting a portion of the water from the 8″ main pipe out to each of 27 different floats via 2″ HDPE piping. The Nelson F100 series Big Gun spray irrigation heads were mounted on the floats and directly connected to the 2″ HDPE piping. Around 47 PSI of water pressure was constantly maintained to allow sufficient working pressure for each of the 27 spray irrigation heads. The chemical being dosed into the line via the Verdeflex pumps was carefully calculated to ensure sufficient Ferric Gluconate and Hydrogen Peroxide were present in the line to not only ensure substantially complete destruction of all sulfide in the line but to provide a surplus of chemicals for additional treatment upon contact with any sulfides in the pond. […]
Prior to treatment initiation, samples were taken starting on Mar. […] A quantity of 45 gallons per hour (540 gallons per 12 hour period) of 50% Peroxide and 20 gallons per hour of Ferric Gluconate (240 gallons per 12 hour period) were pumped into the lagoon via the sprayer system.

[7] = Treatment of groundwater contaminated with BTEX and MtBE; details: 250 mL groundwater; 1 mL 35% H2O2, plus 1 mL Fe-GLC in the combination; untreated 56 ppb
Fecal Coliform = assay: Disinfecting wastewater, peroxide alone vs Fe-GLC and peroxide; type: cell-based; details: 20 mg H2O2 (50 microliters 35%), plus 50 microliters Fe-GLC in the combination; after twenty minutes; control 2200
Source text: A sample of wastewater was collected from the influent of the chlorine contact chamber of the York River Wastewater Treatment Plant in Yorktown, Va. The samples were divided equally into three clean 500 milliliter sample containers from the single sample taken. The first sample served as a control and was set aside. […] Each sample was capped and shaken briefly to mix the contents. After twenty minutes, sub-samples were taken from each vessel and pored into fecal coliform sample containers for analysis at the Hampton Roads Sanitary District lab.

[8] = 10 min; 33 mg/l H2O2 (+44 μg/l VTX as total iron in the combination)
Description: This step was seen to minimize the amount of natural oxidation of added sulfide by sulfide-oxidizing bacteria present in the biosolids. Sodium hydrosulfide was added to 35 liters of wastewater to achieve a starting total sulfide concentration of ˜10 mg/l sulfide. The pH was adjusted within the aquarium to a pH of 7.0 using a dilute solution of hydrochloric acid.
The Odalog was affixed using a ring stand to achieve a one centimeter gap between the intake of the Odalog and the surface of the aquarium. […] Wastewater was pulled from near the bottom of the aquarium using a Watson-Marlow Peristaltic Pump capable of delivering 0.001-190 mls/minute. […] The volume of the line prior to discharge equated to ˜100 milliliters. A delivery spray system was mimicked by drilling small holes (0.35 mm) into 0.25 inch tubing distributed evenly above the aquarium. […] A filtration devise was installed in-line to minimize particle clogging with the intake in the tank above the settled biosolids to aid in this process.
No catalyst was added along with the peroxide in Treatment 3.
Testing for total sulfide in solution was conducted prior to beginning treatment at three depths.

[9] = Treatment of groundwater contaminated with BTEX and MtBE; details: 250 mL groundwater; 1 mL 35% H2O2, plus 1 mL Fe-GLC in the combination; untreated 171 ppb
[10] = as above; details: 250 mL groundwater; 1 mL 35% H2O2, plus 1 mL Fe-GLC in the combination; untreated 159 ppb
[11] = Vapor suppression spray test, hydrogen sulfide above test water; details: no treatment 18
Description: A solution of ferric glucontate treatment was prepared using 2.0 M ferric gluconate solution along with distilled water to achieve a final concentration of ferric gluconate at 5 mg/ml, as ferric iron.
A five gallon bucket containing five liters of de-ionized water was infused with 10 parts per million of total sulfide using technical grade anhydrous Sodium Hydrosulfide. The pH of the water was then adjusted to a pH of 7.0 using a dilute solution of hydrochloric acid.
After cleaning the bucket for control testing for each study, five additional liters of de-ionized water was added and the same quantity of sulfide was infused into the fresh water and the pH adjusted to 7.0.

[12] = Treatment of groundwater contaminated with BTEX and MtBE; details: 250 mL groundwater; 1 mL 35% H2O2, plus 1 mL Fe-GLC in the combination; untreated 27 ppb
[13] = Treatment of 2,4-D with hydrogen peroxide alone against hydrogen peroxide/Fe-gluconate; details: 250 mL; 200 microliters 50% hydrogen peroxide, plus 200 microliters Fe-GLC in the combination; after four hours; untreated 130 ppb
Description: The dissolved sodium bicarbonate increased the alkalinity of the water somewhat, causing the water to mimic a natural water source. Two hundred fifty milliliters of this solution was distributed into three 500 mL Erlenmeyer flasks. […] The flasks were then covered with parafilm and swirled to facilitate mixing of the solution. After four hours a sample from each flask was taken to the pesticide lab at Virginia Tech and analyzed by gas chromatography (GC) for 2,4-D. The findings were as follows: […]

[14] = Treatment of groundwater contaminated with BTEX and MtBE; details: 250 mL groundwater; 1 mL 35% H2O2, plus 1 mL Fe-GLC in the combination; untreated 34 ppb
[15] = after 2 days; cited from earlier work
[16] = spray system on, April 2016, date by row, same dosage

ferric gluconate [Fe-GLC]
Overall total percentage of sulfide reduction [1]: 90%
Overall total percentage of sulfide reduction ([1]; listed as Fe-Gluconate): 90%
sulfide remaining ([1]; 5 min contact): 3.40 ppm
sulfide remaining ([1]; 10 min contact): 2.80 ppm
sulfide remaining ([1]; 20 min contact): 1.40 ppm
Test 1 CFUs/ml 19.8 ppm H2O2 6 ppm Fe-Chelant [2]: 98 CFUs/ml
Test 2 CFUs/ml 39.6 ppm H2O2 12 ppm Fe-Chelant [2]: 28 CFUs/ml
Test 3 CFUs/ml 12 ppm Fe-Chelant ([2]; chelant alone, no H2O2): 22,600 CFUs/ml
average sulfide measurement [3]: 2.14 mg/L
sulfide reduction after 15 minutes ([4]; 20 ppm chelant and 105.8 ppm hydrogen peroxide): 86.8%
Aqueous Sulfide, location 1S ([5]; same dosage, T1 before treatment 1.35): 0 ppm and 0.00 ppm
Gaseous Sulfide downwind at lagoon edge, Station 2 [5]: 0.00 ppm
Gaseous Sulfide downwind at lagoon edge, Station 3 [5]: 0.00 ppm
average sulfide measurement ([6]; one month, five sampling locations, spray system, untreated average 1.06 mg/l): 0.06 mg/L
Aqueous Sulfide, Station 1 (surface) [6, 16]: 0.00 mg/L
Aqueous Sulfide, Station 4 (surface) [6, 16]: 0.00 mg/L
sulfide in wastewater spray upon exiting the spray nozzles ([6]; with proper dosage of oxidation chemicals): 0.00 mg/L

OO [H2O2, hydrogen peroxide]
Benzene after treatment [7]: 15.1 ppb
Fecal Coliform (Fecal Coliform): 53 cfu/100 mL
H2S Above H2O [8]: 17 PPM
Total Sulfide 1 CM Depth [8]: 8.5 mg/L
Total Sulfide 2 CM Depth [8]: 9.1 mg/L
Total Sulfide 3 CM Depth [8]: 9.3 mg/L
Toluene after treatment [9]: 55.7 ppb
Xylenes after treatment [10]: 67.0 ppb
Percentage of Sulfide Treated After 30 Minutes ([4]; 1.5:1.0 peroxide to sulfide, Dose 3, 38.7 ppm H2O2 only (control run of the chelant named in the row)): 59.0 and 46.5 and 56.3 and 57.0 and 55.5 and 54.7
Percentage of Sulfide Treated After 30 Minutes ([4]; 2.5:1.0 peroxide to sulfide, Dose 3, 105.8 ppm H2O2 only (control run of the chelant named in the row)): 69.0 and 69.5 and 67.8 and 66.4 and 44.4 and 69.3 and 70.2
sulfide reduction after 15 minutes, average ([4]; hydrogen peroxide alone, 2.5:1.0 peroxide to sulfide): 52%
sulfide treatment after 15 minutes ([4]; peroxide alone, 37.8 ppm level): 42.9%
H2S reading after 10 minutes ([11]; 1 ml of 15 mg/ml H2O2): 6 ppm
H2S reading after 10 minutes ([11]; 3 ml of 15 mg/ml H2O2): 4 ppm
H2S reading after 10 minutes ([11]; 5 ml of 15 mg/ml H2O2 sprayed on 5 L water with 10 ppm total sulfide, pH 7.0): 3 ppm
MtBE after treatment [12]: 15.7 ppb
2,4-D [13]: 230 ppb
Ethylbenzene after treatment [14]: 13.0 ppb

O=C([O-])[C@H](O)[C@@H](O)[C@H](O)[C@H](O)CO.[Na+] [Sodium gluconate, sodium gluconate]
readily biodegradable [15]: 98%
